Results as given in publication PMC3204421 (Frontiers in Pharmacology, 2011).
Values belong to the compound of their own block, whether it stands above or below them.

Experiments:
[1] = tested on: atrial fibrillation; details: ref Hashimoto et al., [2008]; Machida et al., [2011]; cited from earlier work
[2] = tested on: GIRK1/GIRK4 channels; details: ref Hashimoto et al., [2008]; Machida et al., [2011]; cited from earlier work
[3] = target: T1, GIRK1/GIRK2 channels (AtT20 cells) (Mus musculus, UniProt P48542+P63250); test: GIRK channel fluorescent plate reader assay; type: cell-based
T1 sequence (P63250 1-501): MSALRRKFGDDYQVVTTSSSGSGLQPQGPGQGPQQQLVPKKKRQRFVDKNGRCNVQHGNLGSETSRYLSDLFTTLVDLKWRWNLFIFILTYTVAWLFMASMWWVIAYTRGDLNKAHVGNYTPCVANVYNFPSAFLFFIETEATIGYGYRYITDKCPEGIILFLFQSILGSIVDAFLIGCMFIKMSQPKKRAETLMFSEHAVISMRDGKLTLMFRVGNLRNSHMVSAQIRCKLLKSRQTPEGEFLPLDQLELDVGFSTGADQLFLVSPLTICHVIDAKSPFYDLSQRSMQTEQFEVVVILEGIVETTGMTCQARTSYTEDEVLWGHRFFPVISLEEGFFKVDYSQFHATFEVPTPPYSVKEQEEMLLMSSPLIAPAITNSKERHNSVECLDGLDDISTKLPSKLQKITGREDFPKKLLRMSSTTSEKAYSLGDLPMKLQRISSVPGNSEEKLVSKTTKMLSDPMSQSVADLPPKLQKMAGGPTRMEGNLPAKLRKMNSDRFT
T1 sequence (P48542 1-425): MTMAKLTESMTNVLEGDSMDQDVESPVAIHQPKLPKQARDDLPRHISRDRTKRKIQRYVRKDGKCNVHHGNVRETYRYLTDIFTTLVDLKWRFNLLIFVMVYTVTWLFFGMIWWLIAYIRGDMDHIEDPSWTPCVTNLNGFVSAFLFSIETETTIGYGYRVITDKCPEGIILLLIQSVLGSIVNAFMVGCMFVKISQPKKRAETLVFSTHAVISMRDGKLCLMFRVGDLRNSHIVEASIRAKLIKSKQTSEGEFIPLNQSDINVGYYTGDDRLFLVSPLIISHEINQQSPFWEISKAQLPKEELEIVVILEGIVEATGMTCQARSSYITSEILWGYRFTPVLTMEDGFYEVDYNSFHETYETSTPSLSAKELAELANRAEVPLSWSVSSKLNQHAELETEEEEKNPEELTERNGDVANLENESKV

[4] = target: T2, GIRK1/GIRK4 channel (cardiac HL-1 cells) (Mus musculus, UniProt P48545+P63250); test: GIRK channel fluorescent plate reader assay; type: cell-based
T2 sequence (P63250 1-501): T1 sequence (P63250 1-501)
T2 sequence (P48545 1-419): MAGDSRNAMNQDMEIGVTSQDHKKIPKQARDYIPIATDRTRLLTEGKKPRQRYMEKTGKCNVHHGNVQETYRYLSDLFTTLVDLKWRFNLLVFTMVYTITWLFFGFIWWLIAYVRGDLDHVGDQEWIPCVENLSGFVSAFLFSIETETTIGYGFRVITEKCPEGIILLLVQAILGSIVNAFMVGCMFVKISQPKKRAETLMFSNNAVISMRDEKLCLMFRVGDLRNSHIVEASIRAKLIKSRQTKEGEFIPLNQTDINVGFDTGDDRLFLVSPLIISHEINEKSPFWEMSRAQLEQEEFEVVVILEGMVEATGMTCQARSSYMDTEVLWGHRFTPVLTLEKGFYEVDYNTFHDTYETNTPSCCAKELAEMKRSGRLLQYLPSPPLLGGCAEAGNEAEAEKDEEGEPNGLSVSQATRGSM

SMILES: Cc1cc(CO)nc2cc3c(cc12)OC(C)(C)[C@H](O)[C@H]3NCCc1ccccc1 [NTC-801]
effect in canine model of atrial fibrillation [1]: converted AF to sinus rhythm | concentration range of GIRK1/GIRK4 channel block [2]: nanomolar concentrations

SMILES: [Ba+2].[Cl-].[Cl-] [BaCl2]
reduction of the somatostatin-mediated fluorescent change ([3]; 0.5 mM, AtT20 cells, n = 6 wells): 67 ± 4% | reduction of the somatostatin-mediated fluorescent change ([3]; 1 mM, AtT20 cells, n = 6 wells): 92 ± 2% | inhibition of the somatostatin-mediated fluorescent change ([3]; 2 mM, 5 min pretreatment, AtT20 cells): complete inhibition

SMILES: C[C@H](N)C(=O)NCC(=O)N[C@H]1CSSC[C@@H](C(=O)O)NC(=O)[C@H](CO)NC(=O)[C@H]([C@@H](C)O)NC(=O)[C@H](Cc2ccccc2)NC(=O)[C@H]([C@@H](C)O)NC(=O)[C@H](CCCCN)NC(=O)[C@H](Cc2c[nH]c3ccccc23)NC(=O)[C@H](Cc2ccccc2)NC(=O)[C@H](Cc2ccccc2)NC(=O)[C@H](CC(N)=O)NC(=O)[C@H](CCCCN)NC1=O [somatostatin]
fluorescent change (F/FO) ([3]; 200 nM, AtT20 cells, n = 6 wells): −0.088

SMILES: [Cl-].[K+] [KCl]
fluorescent change (F/FO) ([3]; 10 mM KCl, depolarization, AtT20 cells): 0.058 | fluorescent change (F/FO) ([3]; 20 mM KCl, depolarization, AtT20 cells): 0.13 | fluorescent change (F/FO) ([3]; 30 mM KCl, depolarization, AtT20 cells): 0.15

SMILES: Cc1nc2c(OCc3ccccc3)cccn2c1CC#N [SCH-28080, 2-methyl-8-(phenylmethoxy)imidazo[1,2-A]pyridine-3-acetonitrile]
IC50 [3]: 0.2 µM | IC50 [4]: 0.3 µM

SMILES: COc1ccc2[nH]c([S+]([O-])Cc3ncc(C)c(OC)c3C)nc2c1 (stereo not shown) [omeprazole]
change in GPCR-sensitive fluorescence during treatment ([3]; cell line not specified (AtT20 / HL-1), Figure 5): no change in fluorescence

More lines, now with the values ahead:

EC50 [3]: 1 µM | peak fluorescent change ([3]; AtT20 cells, n = 6 wells): −0.037
SMILES: C[N+](C)(C)CCOC(N)=O [carbachol]

change in the fluorescent signal ([3]; 10 μM, AtT20 cells): no change
SMILES: Nc1ncnc2c1ncn2[C@@H]1O[C@H](CO)[C@@H](O)[C@H]1O [adenosine]

GIRK channel blocking effect ([3]; tested up to 10 μM, AtT20 and HL-1 cells screened, cell line not specified): no blocking effect
SMILES: N=C(N)NC(=O)c1nc(Cl)c(N)nc1N [amiloride]
